Laboratory results published in the supplement of paper PMC10307832.

Legend:
Test in all cases: relative viability (nuclei count vs DMSO), 5 days (fraction); higher = more cells survive
Wnt-C59 + Bortezomib = compound: CC1=NC=CC(=C1)C2=CC=C(C=C2)CC(=O)NC3=CC=C(C=C3)C4=CN=CC=C4 [Wnt-C59] + CC(C)C[C@H](NC(=O)[C@H](Cc1ccccc1)NC(=O)c1cnccn1)B(O)O [Bortezomib] (partner 0.002 µM)
Outline: (§1)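 Five library-drug doses in √10 steps were combined with a fixed anchor-drug dose, or a single drug was given alone, by pin tool to lung cancer cell lines in 1536-well plates the day after seeding. Nuclei were stained and counted after 5 days. Relative viability is the nuclei count in treated wells over that in vehicle wells, taken as the median of duplicate plates.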

Wnt-C59 + Navitoclax = compound: CC1=NC=CC(=C1)C2=CC=C(C=C2)CC(=O)NC3=CC=C(C=C3)C4=CN=CC=C4 [Wnt-C59] + CC1(C)CCC(c2ccc(Cl)cc2)=C(CN2CCN(c3ccc(C(=O)NS(=O)(=O)c4ccc(N[C@H](CCN5CCOCC5)CSc5ccccc5)c(S(=O)(=O)C(F)(F)F)c4)cc3)CC2)C1 [Navitoclax] (partner 0.5 µM)
Outline: as §1

Wnt-C59 + Linsitinib = compound: CC1=NC=CC(=C1)C2=CC=C(C=C2)CC(=O)NC3=CC=C(C=C3)C4=CN=CC=C4 [Wnt-C59] + C[C@]1(O)C[C@@H](c2nc(-c3ccc4ccc(-c5ccccc5)nc4c3)c3c(N)nccn32)C1 [Linsitinib] (partner 1 µM)
Outline: as §1

Lapatinib + Linsitinib = compound: CS(=O)(=O)CCNCc1ccc(-c2ccc3ncnc(Nc4ccc(OCc5cccc(F)c5)c(Cl)c4)c3c2)o1 [Lapatinib] + C[C@]1(O)C[C@@H](c2nc(-c3ccc4ccc(-c5ccccc5)nc4c3)c3c(N)nccn32)C1 [Linsitinib] (partner 1 µM)
Outline: as §1

Cell Line	relative viability (Wnt-C59 + Bortezomib; first compound 0.001 µM)	relative viability (Wnt-C59 + Bortezomib; first compound 0.01 µM)	relative viability (Wnt-C59 + Bortezomib; first compound 0.03162 µM)	relative viability (Wnt-C59 + Bortezomib; first compound 0.1 µM)	relative viability (Wnt-C59 + Navitoclax; first compound 0.001 µM)	relative viability (Wnt-C59 + Navitoclax; first compound 0.01 µM)	relative viability (Wnt-C59 + Navitoclax; first compound 0.03162 µM)	relative viability (Wnt-C59 + Navitoclax; first compound 0.1 µM)	relative viability (Wnt-C59 + Linsitinib; first compound 0.001 µM)	relative viability (Wnt-C59 + Linsitinib; first compound 0.01 µM)	relative viability (Wnt-C59 + Linsitinib; first compound 0.03162 µM)	relative viability (Wnt-C59 + Linsitinib; first compound 0.1 µM)	relative viability (Lapatinib + Linsitinib; first compound 0.02 µM)	relative viability (Lapatinib + Linsitinib; first compound 0.06325 µM)	relative viability (Lapatinib + Linsitinib; first compound 0.2 µM)	relative viability (Lapatinib + Linsitinib; first compound 0.6325 µM)	relative viability (Lapatinib + Linsitinib; first compound 2 µM)
LOU-NH91	0.492	0.583	0.465	0.53	0.823	0.573	0.638	0.713	1.07	0.748	0.854	0.899	0.861	0.761	0.753	0.637	0.464
LU99A	1.11	1.08	1.07	1.1	0.779	0.933	0.822	0.772	0.554	0.508	0.594	0.495	0.534	0.511	0.581	0.565	0.561
LXF-289	0.969	0.965	0.99	1.02	0.999	0.912	0.929	0.948	0.99	0.933	1	0.918	0.983	0.913	0.982	0.902	0.816
NCI-H23	1.04	1.07	0.905	0.962	0.723	0.775	1.04	0.805	0.719	0.518	0.579	0.483	–	–	0.508	0.588	0.462
NCI-H322M	1.25	1.25	1.23	1.12	1.21	1.05	0.978	0.993	1.07	0.775	0.758	0.685	0.931	0.839	0.803	0.767	0.592
NCI-H441	0.364	0.236	0.593	0.682	0.709	1.06	0.743	0.517	0.496	0.407	0.667	0.575	0.377	0.659	0.494	0.457	0.593
NCI-H460	0.934	1.06	1.14	1.1	0.968	1.18	1.11	1.04	0.789	0.809	0.869	0.7	0.736	0.776	0.843	0.573	0.674
NCI-H520	0.596	0.611	0.509	0.57	1.11	1.13	1.11	1.05	0.944	0.912	1.1	0.843	0.9	0.799	1.04	0.992	1.16
NCI-H596	0.837	1.08	1.12	–	1.04	0.802	1.05	1.05	1.04	0.954	1.16	1.1	1.11	1.02	1.09	1.19	0.839
NCI-H647	1.06	1.02	0.842	1.06	1.16	0.972	1.12	0.967	1.08	1.15	1.18	1.22	1.21	1.17	1.37	1.1	0.995
NCI-H727	0.948	0.782	0.951	1.08	0.554	0.542	0.459	0.451	0.399	0.277	0.269	0.258	0.259	0.207	0.278	0.256	0.236
NCI-H838	0.905	0.655	0.739	0.754	1.24	1.18	1.18	1.16	1.07	0.997	1.01	1.04	1.08	0.913	1.03	1.04	0.874
NCI-H1299	1.02	1.06	1.02	1.01	1.03	1.06	1.02	1.02	0.965	1.07	0.961	1	0.973	0.923	0.98	1	1.05
NCI-H1355	1.18	1.05	1.23	1.1	1.01	0.876	0.905	0.88	0.875	0.779	0.881	0.673	–	0.745	0.782	0.792	0.526
NCI-H1437	0.576	0.433	0.551	0.395	1.16	1.03	1.16	1.09	1.01	1.01	1.04	1.01	0.898	0.968	1.05	0.864	0.875
NCI-H1651	0.928	0.985	0.97	0.913	1.07	1.02	1.11	0.955	1	0.9	1.02	0.852	0.946	0.884	0.922	0.846	0.9
NCI-H1666	0.797	0.749	0.807	0.89	1.14	0.909	1.01	0.863	0.941	0.682	0.885	0.874	0.822	0.681	0.704	0.611	0.248
NCI-H1703	0.417	0.271	0.331	0.42	1.45	1.39	1.08	1.08	0.721	0.631	0.739	0.899	0.695	0.642	0.888	0.512	0.662
NCI-H1734	0.906	0.778	0.992	0.914	0.856	0.811	0.86	0.838	0.858	0.779	0.916	0.911	–	0.729	0.946	0.858	0.745

Cell Line	relative viability (Wnt-C59 + Bortezomib; first compound 0.001 µM)	relative viability (Wnt-C59 + Bortezomib; first compound 0.01 µM)	relative viability (Wnt-C59 + Bortezomib; first compound 0.03162 µM)	relative viability (Wnt-C59 + Bortezomib; first compound 0.1 µM)	relative viability (Wnt-C59 + Navitoclax; first compound 0.001 µM)	relative viability (Wnt-C59 + Navitoclax; first compound 0.01 µM)	relative viability (Wnt-C59 + Navitoclax; first compound 0.03162 µM)	relative viability (Wnt-C59 + Navitoclax; first compound 0.1 µM)	relative viability (Wnt-C59 + Linsitinib; first compound 0.001 µM)	relative viability (Wnt-C59 + Linsitinib; first compound 0.01 µM)	relative viability (Wnt-C59 + Linsitinib; first compound 0.03162 µM)	relative viability (Wnt-C59 + Linsitinib; first compound 0.1 µM)	relative viability (Lapatinib + Linsitinib; first compound 0.02 µM)	relative viability (Lapatinib + Linsitinib; first compound 0.06325 µM)	relative viability (Lapatinib + Linsitinib; first compound 0.2 µM)	relative viability (Lapatinib + Linsitinib; first compound 0.6325 µM)	relative viability (Lapatinib + Linsitinib; first compound 2 µM)
NCI-H1755	0.974	0.88	0.929	0.948	0.983	0.977	1.01	1.02	0.979	0.954	0.983	0.984	0.983	0.963	0.982	0.95	0.714
NCI-H1792	0.959	0.963	1.04	0.946	0.671	0.669	0.695	0.701	0.557	0.5	0.465	0.549	0.456	0.455	0.532	0.533	0.431
NCI-H1915	0.943	0.951	1.05	0.934	0.822	0.8	0.77	0.8	1.07	1.04	1.12	1.09	–	1.09	1.08	1.02	1.1
NCI-H1975	0.297	0.372	0.461	0.37	1.25	1.11	1.06	1.2	1.01	0.88	1.01	0.922	0.843	0.927	0.954	0.853	0.694
NCI-H1993	1.14	1.12	1.21	1.2	1.04	0.82	1.09	0.972	0.703	0.811	0.699	0.799	0.743	–	0.816	0.752	0.639
NCI-H2009	1.07	1.06	1.03	0.993	1.13	1.23	1.14	1.14	1.17	1.15	1.19	1.12	1.22	1.22	1.22	1.18	1.09
NCI-H2023	0.979	1.1	1.05	0.821	1	0.993	1.03	0.944	0.736	0.58	0.648	0.631	0.594	0.519	0.474	0.512	0.366
NCI-H2085	1.16	0.898	1.07	1.16	1.28	1.15	1.23	1.05	0.971	0.867	1.02	0.947	0.919	0.89	0.811	0.813	0.62
NCI-H2087	0.68	0.715	0.789	0.753	1.03	0.981	1.01	0.93	1.04	0.956	0.958	0.858	0.97	0.887	1.01	1.06	0.818
NCI-H2126	1.12	1.09	1.11	1.11	0.865	0.87	0.866	0.872	0.755	0.7	0.723	0.701	–	0.658	0.685	0.645	0.593
NCI-H2228	1.07	0.746	1.07	0.855	0.957	0.87	0.68	1.05	0.606	0.95	0.77	0.878	0.662	0.51	0.721	0.881	0.891
NCI-H2347	0.808	1.12	0.922	1.1	0.897	0.846	1	0.748	0.987	0.889	0.98	0.987	0.963	0.97	1.01	0.929	0.926
NCI-H2405	0.978	0.962	0.944	0.95	0.946	–	0.702	0.867	1.03	–	0.887	0.875	–	0.805	0.918	0.973	0.768
NCI-H3122	0.998	0.972	1.04	0.958	1.02	0.976	0.958	0.98	1.04	0.931	1.02	1.02	0.996	0.954	0.996	1.04	0.999
PC-3 [JPC-3]	0.874	0.782	0.881	0.856	0.868	0.815	0.933	0.809	0.964	0.942	1.01	0.961	–	1.01	0.993	0.994	0.873
PC-14	0.949	0.9	0.903	0.733	1	1.15	1.06	1.02	0.936	1.04	0.958	0.944	0.86	0.929	0.885	0.904	0.644
RERF-LC-KJ	1.07	1.05	1.22	1.21	0.899	0.908	1.01	1.31	0.914	0.79	0.908	0.85	0.841	0.806	0.782	0.748	0.697
SK-LU-1	1.15	1.23	1.28	1.45	0.893	0.832	1.02	0.893	1.01	1.12	1.07	1.03	–	0.783	1.19	1.01	1.24
